# Measurements: US20260035365A1, “1H-PYRROLO[3,2-B]PYRIDINE DERIVATIVES AS IRREVERSIBLE INHIBITORS OF MUTANT EGFR FOR THE TREATMENT OF CANCER” (Bayer Aktiengesellschaft, priority 2022, published 2026)
# pIC50: −log10 of the molar value.
# Columns and labels:
# [1] = tested on: BA/F3 (insSVD) cells; test: Ba/F3 cell survival assay (Cell Titer-Glo), EGFR-insSVD; type: cell-based; details: Mus musculus, BaF3, 48 h, without IL-3, with EGF
# Outline: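 Ba/F3 cells stably expressing EGFR-insSVD or insSVD T790M via retrovirus (puromycin-selected), switched from IL-3 to 10 ng/mL EGF for 2 days, then plated at 4000 cells/well. Compound added by 100 nL pin transfer; 48 h at 37° C. Viability by CellTiter-Glo luminescence.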
# [2] = biological target: mutEGFR (D770_N771insSVD) (Homo sapiens, UniProt P00533, INS767SVD); test: Exon20-mutant-EGFR (D770_N771insSVD) TR-FRET kinase assay; type: biochemical; details: 2 mM ATP, 15 min preincubation
# mutEGFR (D770_N771insSVD), sequence (P00533 with tags, fused parts or gaps INS767SVD limits assumed): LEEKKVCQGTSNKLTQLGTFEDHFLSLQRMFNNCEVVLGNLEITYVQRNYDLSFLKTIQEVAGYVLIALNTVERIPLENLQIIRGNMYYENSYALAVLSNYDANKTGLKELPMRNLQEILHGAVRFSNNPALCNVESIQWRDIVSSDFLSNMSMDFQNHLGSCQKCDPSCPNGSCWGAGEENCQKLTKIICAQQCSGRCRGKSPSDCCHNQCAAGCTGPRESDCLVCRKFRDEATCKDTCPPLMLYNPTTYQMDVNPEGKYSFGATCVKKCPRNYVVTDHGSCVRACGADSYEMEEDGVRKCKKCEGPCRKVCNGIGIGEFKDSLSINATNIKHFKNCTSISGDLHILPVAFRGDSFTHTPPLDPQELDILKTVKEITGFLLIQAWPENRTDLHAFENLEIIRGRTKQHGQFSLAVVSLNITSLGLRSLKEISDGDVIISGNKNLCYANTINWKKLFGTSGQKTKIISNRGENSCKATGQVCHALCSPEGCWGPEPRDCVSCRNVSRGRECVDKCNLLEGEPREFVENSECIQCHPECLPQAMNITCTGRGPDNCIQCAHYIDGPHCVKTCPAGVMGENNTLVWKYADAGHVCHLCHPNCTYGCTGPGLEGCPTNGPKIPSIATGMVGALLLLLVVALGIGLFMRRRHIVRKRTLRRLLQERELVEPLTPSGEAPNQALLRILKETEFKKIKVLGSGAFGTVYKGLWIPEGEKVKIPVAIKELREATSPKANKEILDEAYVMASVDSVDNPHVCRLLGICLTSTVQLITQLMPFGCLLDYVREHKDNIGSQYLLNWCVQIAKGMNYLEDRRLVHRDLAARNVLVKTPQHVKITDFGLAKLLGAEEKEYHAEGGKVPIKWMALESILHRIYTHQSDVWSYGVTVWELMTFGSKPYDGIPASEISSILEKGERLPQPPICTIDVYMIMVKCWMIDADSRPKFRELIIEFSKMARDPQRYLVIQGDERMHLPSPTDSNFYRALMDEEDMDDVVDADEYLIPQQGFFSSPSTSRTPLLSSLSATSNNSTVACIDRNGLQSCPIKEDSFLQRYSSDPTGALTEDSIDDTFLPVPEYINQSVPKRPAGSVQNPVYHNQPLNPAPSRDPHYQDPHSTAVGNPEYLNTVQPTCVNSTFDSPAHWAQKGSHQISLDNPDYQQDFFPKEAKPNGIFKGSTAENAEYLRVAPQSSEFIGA
# Outline: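 GST-fused human EGFR fragment R669-A1210 carrying the SVD insertion, Sf9-expressed, typically 15 pg/μl, was preincubated with compound for 15 min at 22° C in pH 7.0 Hepes/MgCl2 buffer. Phosphorylation was read by HTRF (665/620 nm ratio), normalised to no-inhibitor and no-enzyme controls.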
# [3] = biological target: mutEGFR (D770_N771insNPG, T790); test: mutEGFR (D770_N771insNPG, T790) kinase assay; type: biochemical, human
# mutEGFR (D770_N771insNPG, T790), sequence (P00533 with tags, fused parts or gaps INS770NPG limits assumed): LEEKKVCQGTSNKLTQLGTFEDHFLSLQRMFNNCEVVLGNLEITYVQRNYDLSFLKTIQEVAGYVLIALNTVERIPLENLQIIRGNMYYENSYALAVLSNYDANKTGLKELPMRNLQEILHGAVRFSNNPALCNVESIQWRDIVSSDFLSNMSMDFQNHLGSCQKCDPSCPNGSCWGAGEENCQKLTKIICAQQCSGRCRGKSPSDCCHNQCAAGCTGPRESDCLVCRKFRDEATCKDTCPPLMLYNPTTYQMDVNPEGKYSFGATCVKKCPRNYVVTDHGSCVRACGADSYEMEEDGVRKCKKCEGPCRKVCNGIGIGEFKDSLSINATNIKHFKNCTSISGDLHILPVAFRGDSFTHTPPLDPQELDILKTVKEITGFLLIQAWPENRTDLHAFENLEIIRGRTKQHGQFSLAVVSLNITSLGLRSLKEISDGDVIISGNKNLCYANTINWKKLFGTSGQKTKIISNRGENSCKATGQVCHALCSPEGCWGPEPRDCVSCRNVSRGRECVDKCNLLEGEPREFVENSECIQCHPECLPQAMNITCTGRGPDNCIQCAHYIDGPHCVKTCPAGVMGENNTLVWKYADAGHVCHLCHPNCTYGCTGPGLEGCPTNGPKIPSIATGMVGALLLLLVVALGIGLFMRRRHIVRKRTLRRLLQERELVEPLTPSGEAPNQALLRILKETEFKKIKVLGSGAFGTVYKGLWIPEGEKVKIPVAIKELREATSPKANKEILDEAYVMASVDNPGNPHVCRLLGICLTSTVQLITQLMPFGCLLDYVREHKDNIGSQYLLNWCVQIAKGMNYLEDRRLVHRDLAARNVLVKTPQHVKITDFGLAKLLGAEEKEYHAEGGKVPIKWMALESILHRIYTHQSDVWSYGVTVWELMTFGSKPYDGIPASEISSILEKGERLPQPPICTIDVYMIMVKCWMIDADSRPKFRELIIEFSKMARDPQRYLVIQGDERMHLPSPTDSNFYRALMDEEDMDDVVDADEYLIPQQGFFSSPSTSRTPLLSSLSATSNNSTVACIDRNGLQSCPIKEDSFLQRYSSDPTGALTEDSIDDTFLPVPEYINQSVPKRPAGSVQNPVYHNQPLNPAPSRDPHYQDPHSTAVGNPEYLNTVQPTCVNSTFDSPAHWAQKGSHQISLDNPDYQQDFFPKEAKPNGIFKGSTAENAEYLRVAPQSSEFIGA
SMILES,pIC50 [1],pIC50 [2],pIC50 [3]
"C=CS(=O)(=O)N(C)CCOc1cnccc1-c1[nH]c2cccnc2c1-c1cccc(OC(F)(F)F)c1 [Example 74, N-methyl-N-{2-[(4-{3-[3-(trifluoromethoxy)phenyl]-1H-pyrrolo[3,2-b]pyridin-2-yl}pyridin-3-yl)oxy]ethyl}ethenesulfonamide]",6.02,7.95,7.23
"C=CS(=O)(=O)N(C)CCOc1cnccc1-c1[nH]c2cccnc2c1-c1cc(Cl)cc(Cl)c1 [Example 75, N-[2-({4-[3-(3,5-dichlorophenyl)-1H-pyrrolo[3,2-b]pyridin-2-yl]pyridin-3-yl}oxy)ethyl]-N-methylethenesulfonamide]",5.69,7.35,7.58
"C=CC(=O)N1CCC[C@H]1COc1cnccc1-c1[nH]c2cccnc2c1-c1cc(C(F)(F)F)ccc1F [Example 76, 1-[(2S)-2-{[(4-{3-[2-fluoro-5-(trifluoromethyl)phenyl]-1H-pyrrolo[3,2-b]pyridin-2-yl}pyridin-3-yl)oxy]methyl}pyrrolidin-1-yl]prop-2-en-1-one]",7.01,8.56,8.02
"C=CC(=O)N1CCC[C@H]1COc1cnccc1-c1[nH]c2cccnc2c1-c1cc(C)ccc1F [Example 77, 1-{(2S)-2-[({4-[3-(2-fluoro-5-methylphenyl)-1H-pyrrolo[3,2-b]pyridin-2-yl]pyridin-3-yl}oxy)methyl]pyrrolidin-1-yl}prop-2-en-1-one]",7.56,9.07,8.71
"C=CC(=O)N1CCC[C@H]1COc1cnccc1-c1[nH]c2cccnc2c1-c1cccc(CC)c1 [Example 78, 1-{(2S)-2-[({4-[3-(3-ethylphenyl)-1H-pyrrolo[3,2-b]pyridin-2-yl]pyridin-3-yl}oxy)methyl]pyrrolidin-1-yl}prop-2-en-1-one]",7.10,8.98,8.53
"C=CC(=O)N1CCC[C@H]1COc1cnccc1-c1[nH]c2cccnc2c1-c1ccc2cccnc2c1 [Example 79, 1-{(2S)-2-[({4-[3-(quinolin-7-yl)-1H-pyrrolo[3,2-b]pyridin-2-yl]pyridin-3-yl}oxy)methyl]pyrrolidin-1-yl}prop-2-en-1-one]",6.44,8.36,8.03
"C=CC(=O)N1CCC[C@H]1COc1cnccc1-c1[nH]c2cccnc2c1-c1ccc2ccccc2c1 [Example 80, 1-{(2S)-2-[({4-[3-(naphthalen-2-yl)-1H-pyrrolo[3,2-b]pyridin-2-yl]pyridin-3-yl}oxy)methyl]pyrrolidin-1-yl}prop-2-en-1-one]",6.79,9.23,8.73
"C=CC(=O)N1CCC[C@H]1COc1cnccc1-c1[nH]c2cccnc2c1-c1ccc2ccsc2c1 [Example 81, 1-{(2S)-2-[({4-[3-(1-benzothiophen-6-yl)-1H-pyrrolo[3,2-b]pyridin-2-yl]pyridin-3-yl}oxy)methyl]pyrrolidin-1-yl}prop-2-en-1-one]",7.24,9.41,8.89
"C=CC(=O)N1CCC[C@H]1COc1cnccc1-c1[nH]c2cccnc2c1-c1ccc2ccoc2c1 [Example 82, 1-{(2S)-2-[({4-[3-(1-benzofuran-6-yl)-1H-pyrrolo[3,2-b]pyridin-2-yl]pyridin-3-yl}oxy)methyl]pyrrolidin-1-yl}prop-2-en-1-one]",7.43,9.57,9.08
"C=CC(=O)N1CCC[C@H]1COc1cnccc1-c1[nH]c2cccnc2c1-c1cccc(OC)c1 [Example 83, 1-{(2S)-2-[({4-[3-(3-methoxyphenyl)-1H-pyrrolo[3,2-b]pyridin-2-yl]pyridin-3-yl}oxy)methyl]pyrrolidin-1-yl}prop-2-en-1-one]",6.88,8.68,8.12
"C=CC(=O)N1CCC[C@H]1COc1cnccc1-c1[nH]c2cccnc2c1-c1ccc2cc[nH]c2c1 [Example 84, 1-{(2S)-2-[({4-[3-(1H-indol-6-yl)-1H-pyrrolo[3,2-b]pyridin-2-yl]pyridin-3-yl}oxy)methyl]pyrrolidin-1-yl}prop-2-en-1-one]",5.45,7.49,6.81
"C=CC(=O)N1CCC[C@H]1COc1cnccc1-c1[nH]c2cccnc2c1-c1cccc(Cl)c1Cl [Example 85, 1-{(2S)-2-[({4-[3-(2,3-dichlorophenyl)-1H-pyrrolo[3,2-b]pyridin-2-yl]pyridin-3-yl}oxy)methyl]pyrrolidin-1-yl}prop-2-en-1-one]",7.25,9.30,8.44
"C=CC(=O)N1CCC[C@H]1COc1cnccc1-c1[nH]c2cccnc2c1-c1cccc(F)c1F [Example 86, 1-{(2S)-2-[({4-[3-(2,3-difluorophenyl)-1H-pyrrolo[3,2-b]pyridin-2-yl]pyridin-3-yl}oxy)methyl]pyrrolidin-1-yl}prop-2-en-1-one]",7.17,9.04,8.40
"C=CC(=O)N1CCC[C@H]1COc1cnccc1-c1[nH]c2cccnc2c1-c1cccc(C#N)c1 [Example 87, 3-[2-(3-{[(2S)-1-(prop-2-enoyl)pyrrolidin-2-yl]methoxy}pyridin-4-yl)-1H-pyrrolo[3,2-b]pyridin-3-yl]benzonitrile]",6.12,7.82,7.47
"C=CC(=O)N1CCC[C@H]1COc1cnccc1-c1[nH]c2cccnc2c1-c1ccccc1Cl [Example 88, 1-{(2S)-2-[({4-[3-(2-chlorophenyl)-1H-pyrrolo[3,2-b]pyridin-2-yl]pyridin-3-yl}oxy)methyl]pyrrolidin-1-yl}prop-2-en-1-one]",6.78,8.72,7.97
"C=CC(=O)N1CCC[C@H]1COc1cnccc1-c1[nH]c2cccnc2c1-c1ccccc1F [Example 89, 1-{(2S)-2-[({4-[3-(2-fluorophenyl)-1H-pyrrolo[3,2-b]pyridin-2-yl]pyridin-3-yl}oxy)methyl]pyrrolidin-1-yl}prop-2-en-1-one]",7.62,9.26,8.64
"C=CC(=O)N1CCC[C@H]1COc1cnccc1-c1[nH]c2cccnc2c1-c1cc(C#N)ccc1F [Example 90, 4-fluoro-3-[2-(3-{[(2S)-1-(prop-2-enoyl)pyrrolidin-2-yl]methoxy}pyridin-4-yl)-1H-pyrrolo[3,2-b]pyridin-3-yl]benzonitrile]",6.00,7.46,7.20
"C=C(F)C(=O)N1CCC[C@H]1COc1cnccc1-c1[nH]c2cccnc2c1-c1ccccc1 [Example 91, 2-fluoro-1-[(2S)-2-({[4-(3-phenyl-1H-pyrrolo[3,2-b]pyridin-2-yl)pyridin-3-yl]oxy}methyl)pyrrolidin-1-yl]prop-2-en-1-one]",5.83,7.11,6.11
"C/C=C/C(=O)N1CCC[C@H]1COc1cnccc1-c1[nH]c2cccnc2c1-c1ccccc1 [Example 92, (2E)-1-[(2S)-2-({[4-(3-phenyl-1H-pyrrolo[3,2-b]pyridin-2-yl)pyridin-3-yl]oxy}methyl)pyrrolidin-1-yl]but-2-en-1-one]",5.15,5.43,< 4.70
"C#CC(=O)N1CCC[C@H]1COc1cnccc1-c1[nH]c2cccnc2c1-c1ccccc1 [Example 93, 1-[(2S)-2-({[4-(3-phenyl-1H-pyrrolo[3,2-b]pyridin-2-yl)pyridin-3-yl]oxy}methyl)pyrrolidin-1-yl]prop-2-yn-1-one]",7.26,8.99,8.50
"CC#CC(=O)N1CCC[C@H]1COc1cnccc1-c1[nH]c2cccnc2c1-c1ccccc1 [Example 94, 1-[(2S)-2-({[4-(3-phenyl-1H-pyrrolo[3,2-b]pyridin-2-yl)pyridin-3-yl]oxy}methyl)pyrrolidin-1-yl]but-2-yn-1-one]",5.61,6.44,< 5.79
"Cn1ccc(C#CC(=O)N2CCC[C@H]2COc2cnccc2-c2[nH]c3cccnc3c2-c2ccccc2)n1 [Example 95, 3-(1-methyl-1H-pyrazol-3-yl)-1-[(2S)-2-({[4-(3-phenyl-1H-pyrrolo[3,2-b]pyridin-2-yl)pyridin-3-yl]oxy}methyl)pyrrolidin-1-yl]prop-2-yn-1-one]",6.17,7.15,6.61
"CN(C)C/C=C/C(=O)N1CCC[C@H]1COc1cnccc1-c1[nH]c2cccnc2c1-c1cccc(C(F)(F)F)c1 [Example 96, (2E)-4-(dimethylamino)-1-[(2S)-2-{[(4-{3-[3-(trifluoromethyl)phenyl]-1H-pyrrolo[3,2-b]pyridin-2-yl}pyridin-3-yl)oxy]methyl}pyrrolidin-1-yl]but-2-en-1-one]",6.43,8.46,7.66
"CN(C)C/C=C/C(=O)N1CCC[C@H]1COc1cnccc1-c1[nH]c2cccnc2c1-c1cc(Cl)ccc1F [Example 97, (2E)-1-{(2S)-2-[({4-[3-(5-chloro-2-fluorophenyl)-1H-pyrrolo[3,2-b]pyridin-2-yl]pyridin-3-yl}oxy)methyl]pyrrolidin-1-yl}-4-(dimethylamino)but-2-en-1-one]",6.75,8.69,8.06
"CN(C)C/C=C\C(=O)N1CCC[C@H]1COc1cnccc1-c1[nH]c2cccnc2c1-c1ccccc1 [Example 98, (2Z)-4-(dimethylamino)-1-[(2S)-2-({[4-(3-phenyl-1H-pyrrolo[3,2-b]pyridin-2-yl)pyridin-3-yl]oxy}methyl)pyrrolidin-1-yl]but-2-en-1-one]",6.13,7.84,7.23
